Results on three molecules are retold here after patent US20230105103A1, “THERAPEUTIC MOLECULES FOR COMBATING SEPSIS” (CENTRE FOR CELLULAR AND MOLECULAR PLATFORMS, priority 2019, published 2023).

Assay [1] addresses T1, TLR2 (Homo sapiens, UniProt O60603). As to conditions: Das et al., 2019; cited from earlier work.
Target sequence in this assay (O60603 21-784, species assumed): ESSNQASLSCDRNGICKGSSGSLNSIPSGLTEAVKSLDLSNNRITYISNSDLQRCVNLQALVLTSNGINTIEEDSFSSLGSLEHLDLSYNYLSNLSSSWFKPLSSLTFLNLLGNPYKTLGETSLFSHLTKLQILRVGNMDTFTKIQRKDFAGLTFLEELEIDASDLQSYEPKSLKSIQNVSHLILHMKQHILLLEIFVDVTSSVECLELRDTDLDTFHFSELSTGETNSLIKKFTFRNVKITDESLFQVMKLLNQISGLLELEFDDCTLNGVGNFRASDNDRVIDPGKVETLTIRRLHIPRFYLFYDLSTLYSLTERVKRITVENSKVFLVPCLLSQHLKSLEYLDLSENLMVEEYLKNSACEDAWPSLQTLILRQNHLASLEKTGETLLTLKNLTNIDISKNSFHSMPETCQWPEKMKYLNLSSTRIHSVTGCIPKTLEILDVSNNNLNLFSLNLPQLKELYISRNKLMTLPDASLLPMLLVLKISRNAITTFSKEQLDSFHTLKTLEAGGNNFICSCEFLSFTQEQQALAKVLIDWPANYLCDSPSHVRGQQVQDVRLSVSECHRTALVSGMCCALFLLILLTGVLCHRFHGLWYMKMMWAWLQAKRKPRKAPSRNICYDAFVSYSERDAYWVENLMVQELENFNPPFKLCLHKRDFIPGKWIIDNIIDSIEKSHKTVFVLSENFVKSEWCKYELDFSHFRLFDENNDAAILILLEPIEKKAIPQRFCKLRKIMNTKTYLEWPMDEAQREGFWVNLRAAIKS
For assay [2], the system named is septic mice in endotoxemia model. Description: Survival in endotoxemia model (LPS injection), native protein. Type of assay: in vivo. As to conditions: treated 6 hours post LPS injection, up to ten days, group G2. How it is done:
In this model, post LPS Injection (i.e., 6 hours) animals were treated with vehicle and test agents amongst different groups G1-G5 as specified in figure. G2 (LPS+DIA-1) was treated with the P1 protein while G3 and G4 were other test protein used as experimental controls.

For assay [3], the system named is septic mice in the CLP model (polymicrobial sepsis). Description: Survival of septic mice in CLP model, native protein. It is filed as in vivo. The procedure:
About 80% of mice that received 15-35 μg of protein and about 60% mice that received 1-20 μg of protein survived even up to 16 days. More preferably, 80% of mice that received 25 μg of protein and 60% mice that received 10 μg of protein survived even up to 16 days. All the mice in the control group had died in the same duration.

Another assay addresses T2, TLR4 (Homo sapiens, UniProt O00206).
T2 construct: host or cells: HEK293 (HEK-Blue TLR4 reporter cells)
Description: HEK-Blue TLR4 reporter assay (NF-kb and AP-1 driven SEAP). Type of assay: cell-based. As to conditions: P1 fraction, HEK293 reporter cells, FIG. 7. An excerpt:
(§1) P1 fraction tested on reporter cell lines where TLR2, TLR4 or TLR3 is expressed in HEK293 cells and activation of the receptors is observed by NP-kB and AP-1 promoter driven SEAP enzyme secretion.
(§2) HEK-Blue TLR2, HEK-Blue TLR3 and HEK-Blue TLR4 reporter cells expressing SEAP (secreted embryonic alkaline phosphatase) enzyme under NF-kb and AP-1 promoter (Cat. no.# hkb-htlr2, hkb-htlr3 and hkb-htlr4) were purchased from InvivoGen (USA). Human Peripheral blood mononuclear cells (PBMCs) (Cat. no.# CL003-25) were purchased from Himedia laboratories (India). HEK based cells and PBMCs were cultured DMEM and RPMI media, respectively. The cells were maintained at 37° C. incubator with 5% CO2. The culture media was supplemented with 10% Fetal Calf Serum (Gibco) along with standard antibiotics. HEK-Blue selection antibiotics (InvivoGen, Cat. no.# hb-sel, ant-zn and ant-bl) were added as per manufacturers' instructions.
(§3) 2×10^4 HEK-Blue reporter cells were seeded, in each well of a 96 well plate, in HEK-Blue detection media (InvivoGen, Cat. no.# hb-det3) along with the 50 μg/ml of the chito-oligomers. […] The treated cells were incubated at about 37° C. for about 16 hours and absorbance (O.D.) was measured at 620 nm in either TECAN Infinite® 200 PRO or Thermo Scientific Varioskan LUX multimode reader.
(In general: Reporter assays use an easily measured gene product as a stand-in for the process of interest.)

The next assay concerns THP-1 cells. The assay is described as follows: THP-1 cells treated with P1 and Pp, cytokine secretion. Type of assay: cell-based, human. How it is done: THP-1 cells (human acute monocytic leukemia cell line) were procured from ATCC (Cat. No# ATCC® TIB-202™). The THP-1 cells were treated with the P1 and Pp to check for any pro-inflammatory activity.
The subject of the next assay is IL-18. As to conditions: monocytes, in vitro, FIG. 8. An excerpt: Increased levels of IL-18 have also been associated with higher mortality in sepsis. In endotoxemia mice models IL-18 knockout mice show better survival than the wild type indicating a role of IL18 in disease severity (Berghe T V, 2014 Eidt M V, 2016).
In a further assay the target is TLR3 (Homo sapiens, UniProt O15455). As to conditions: P1 fraction, HEK293 reporter cells, FIG. 7.
Text: as §1, §2, §3

In assay [4] the target is T1, TLR2. Description: HEK-Blue TLR2 reporter assay (NF-kb and AP-1 driven SEAP). As to conditions: P1 fraction, HEK293 reporter cells, FIG. 7. Also on record: host or cells: HEK293 (HEK-Blue TLR2 reporter cells). Type of assay: cell-based.
Text: as §1, §2, §3
Target sequence in this assay (O60603 21-784): as the sequence (O60603 21-784, species assumed) above

Assay [5] concerns mice in endotoxemia model. As to conditions: Panda et al., 2012; cited from earlier work.

“Also recorded” adds a separate entry of the source.

T2 sequence (O00206 24-839): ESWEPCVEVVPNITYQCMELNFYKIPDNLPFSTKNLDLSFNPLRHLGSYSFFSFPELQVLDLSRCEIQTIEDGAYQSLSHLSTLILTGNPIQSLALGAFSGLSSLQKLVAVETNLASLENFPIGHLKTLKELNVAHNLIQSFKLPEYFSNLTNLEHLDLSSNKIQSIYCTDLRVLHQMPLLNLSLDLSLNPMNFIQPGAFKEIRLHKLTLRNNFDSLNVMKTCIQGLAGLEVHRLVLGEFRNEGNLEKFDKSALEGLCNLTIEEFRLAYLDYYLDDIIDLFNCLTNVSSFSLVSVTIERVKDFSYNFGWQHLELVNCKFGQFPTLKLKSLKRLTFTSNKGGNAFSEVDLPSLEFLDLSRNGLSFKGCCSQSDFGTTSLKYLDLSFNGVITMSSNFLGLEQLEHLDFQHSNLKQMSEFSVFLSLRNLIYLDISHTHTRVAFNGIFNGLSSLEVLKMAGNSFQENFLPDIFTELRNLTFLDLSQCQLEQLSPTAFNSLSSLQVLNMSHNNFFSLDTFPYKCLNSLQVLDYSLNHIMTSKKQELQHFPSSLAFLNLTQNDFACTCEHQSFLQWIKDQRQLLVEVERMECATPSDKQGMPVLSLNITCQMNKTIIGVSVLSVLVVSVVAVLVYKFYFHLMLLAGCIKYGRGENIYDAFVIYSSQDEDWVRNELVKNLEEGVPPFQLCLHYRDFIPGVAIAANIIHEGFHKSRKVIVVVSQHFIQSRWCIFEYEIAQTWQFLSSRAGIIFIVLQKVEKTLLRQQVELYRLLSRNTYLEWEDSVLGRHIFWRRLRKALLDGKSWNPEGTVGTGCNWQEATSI
T2 sequence (Q9Y6Y9 17-160 partner limits assumed): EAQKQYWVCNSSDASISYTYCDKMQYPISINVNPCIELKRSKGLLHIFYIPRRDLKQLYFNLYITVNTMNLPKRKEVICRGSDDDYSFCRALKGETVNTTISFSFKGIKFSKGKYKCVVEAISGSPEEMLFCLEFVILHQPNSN

Turning to `CC(=O)N[C@H]1[C@H](OC2CCCCC2)O[C@H](CO)[C@@H](O[C@@H]2O[C@H](CO)[C@@H](O)[C@H](O)[C@H]2NC(C)=O)[C@@H]1O` [AVR-25], the “binding affinity to TLR2” value at TLR2 [1] was “did not show any binding affinity”.
In turn, “P1: Major G75 size exclusion peak of AgW from Setaria digitata, a pure glycoprotein identified as Heat Shock Protein 70 (SEQ. ID NO. 1)” gave a survival in assay [2] of 66%. In addition, the “mice survived up to 16 days” value in assay [3] (10 μg of protein) is reported as 60%. Further, in assay [3] (25 μg of protein), the “mice survived up to 16 days” value came out at 80%. Moreover, the “mice survived up to 16 days” value in assay [3] (1-20 μg of protein) is “about 60%”. Besides, the “mice survived up to 16 days” value in assay [3] (15-35 μg of protein) is “About 80%”. In the assay with TLR4, the “activation of TLR4 (SEAP secretion)” value was “activates; also recorded: consistently activating”. For the same molecule, the “alternate activation marker CLEC10A or CD301” value in the assay on THP-1 cells (THP-1 cells) is listed as “reduces”. Besides, the “secretion of pro-inflammatory cytokines” value with THP-1 cells (THP-1 cells, FIG. 1B) is listed as “highly active”. In addition, in the assay on THP-1 cells (THP-1 cells, FIG. 1C), the “secretion of IL-1b” value is on record as “promote secretion”, the “secretion of IL-6” value is “promote secretion”, the “secretion of IL-10” value is “promote secretion” and the “secretion of MCP-1” value is given as “promote secretion”. Further, the “secretion of TNF-α” value with THP-1 cells (THP-1 cells, FIG. 1C) is recorded as “promote secretion”. In addition, the induction of cytokines entry with THP-1 cells (THP-1 monocytic cells, FIG. 1C) is “activated the THP-1 monocytic cells”. The “reduction in IL-18 transcript levels” value in the assay on IL-18 is given as “more than 60%”. In addition, in the assay with TLR3, the “activation of TLR3 (SEAP secretion)” value is on record as “no activation”. In the assay with TLR2 [4], the “activation of TLR2 (SEAP secretion)” value is on record as “activates; also recorded: consistently activating”.
As for chitohexaose [CHTX], the protection of mice result in assay [5] is “protect mice”.
